These results are taken from patent US11478478B2, “2,3-disubstituted 1-acyl-4-amino-1,2,3,4-tetrahydroquinoline derivatives and their use as bromodomain inhibitors” (GLAXOSMITHKLINE INTELLECTUAL PROPERTY (NO.2) LIMITED, priority 2013, dated 2022).

Structures can show the parent of a compound that is named as a salt.

In the test the target is T1, BRD4 BD2 (Homo sapiens, UniProt O60885, Y97A).
T1 construct: BRD4 (1-477) (Y97A) and (Y390A); made in house; host or cells: E. coli (pET15b vector)
Briefly: TR-FRET binding assay, BRD4 BD2 (BD1-mutated protein). Particulars: read-out: pIC50 in the BRD4 BD2 assay (converted). As to the method:
Time Resolved Fluorescence Resonance Energy Transfer (TR-FRET) Assay Binding was assessed using a time resolved fluorescent resonance energy transfer binding assay. This utilises a 6 His purification tag at the N-terminal of the proteins as an epitope for an anti-6 His antibody labeled with Europium chelate (PerkinElmer AD0111) allowing binding of the Europium to the proteins which acts as the donor fluorophore. A small molecule, high affinity binder of the bromodomains BRD2, BRD3, BRD4 and BRDT has been labeled with Alexa Fluor647 (Reference Compound X) and this acts as the acceptor in the FRET pair.
In the absence of a competing compound, excitation of the Europium causes the donor to emit at λ618 nm which excites the Alexa labelled bromodomain binding compound leading to an increased energy transfer that is measurable at λ647 nM. In the presence of a sufficient concentration of a compound that can bind these proteins, the interaction is disrupted leading to a quantifiable drop in fluorescent resonance energy transfer.
The binding of the compounds of formula (I) to Bromodomains BRD2, BRD3, BRD4 and BRDT was assessed using mutated proteins to detect differential binding to either Binding Domain 1 (BD1) or Binding Domain 2 (BD2) on the bromodomain. These single residue mutations in the acetyl lysine binding pocket greatly lower the affinity of the fluoroligand (Reference Compound X) for the mutated domain (>1000 fold selective for the non-mutated domain). Therefore in the final assay conditions, binding of the fluoroligand to the mutated domain cannot be detected and subsequently the assay is suitable to determine the binding of compounds to the single non-mutated bromodomain.
Recombinant Human Bromodomains [(BRD2 (1-473) (Y113A) and (Y386A), BRD3 (1-435) (Y73A) and (Y348A) BRD4 (1-477) (Y97A) and (Y390A) and BRDT (1-397) (Y66A) and (Y309A)] were expressed in E. coli cells (in pET15b vector for BRD2/3/4 and in pET28a vector for BRDT) with a 6-His tag at the N-terminal. The His-tagged Bromodomain pellet was resuspended in 50 mM HEPES (pH7.5), 300 mM NaCl, 10 mM imidazole & 1 μl/ml protease inhibitor cocktail and extracted from the E. coli cells using sonication and purified using a nickel sepharose high performance column, the proteins were washed and then eluted with a linear gradient of 0-500 mM imidazole with buffer 50 mM HEPES (pH7.5), 150 mM NaCl, 500 mM imidazole, over 20 column volumes. Final purification was completed by Superdex 200 prep grade size exclusion column. Purified protein was stored at −80° C. in 20 mM HEPES pH 7.5 and 100 mM NaCl. Protein identity was confirmed by peptide mass fingerprinting and predicted molecular weight confirmed by mass spectrometry.
All assay components were dissolved in buffer composition of 50 mM HEPES pH7.4, 50 mM NaCl, 5% Glycerol, 1 mM DTT and 1 mM CHAPS. The final concentration of bromodomain proteins were 10 nM and the Alexa Fluor647 ligand was at Kd. These components were premixed and 5 μl of this reaction mixture was added to all wells containing 50 nl of various concentrations of test compound or DMSO vehicle (0.5% DMSO final) in Greiner 384 well black low volume microtitre plates and incubated in dark for 30 minutes at rt. 5 μl of detection mixture containing 1.5 nM final concentration anti-6His Europium chelate was added to all wells and a further dark incubation of at least 30 minutes was performed. Plates were then read on the Envision platereader, (λex=317 nm, donor λem=615 nm; acceptor λem=665 nm; Dichroic LANCE dual). Time resolved fluorescent intensity measurements were made at both emission wavelengths and the ratio of acceptor/donor was calculated and used for data analysis. All data was normalized to the mean of 16 high (inhibitor control—Example 11 of WO 2011/054846A1) and 16 low (DMSO) control wells on each plate. A four parameter curve fit of the following form was then applied: y=a+((b−a)/(1+(10^/10^)^d) […]
Background: In TR-FRET formats the signal depends on donor and acceptor labels being close together.
As for `CC(=O)N1c2ccccc2[C@H](Nc2ccsc2)[C@@H](C)[C@@H]1C` (racemic) [Example 12, rac-1-((2S,3R,4R)-2,3-dimethyl-4-(thiophen-3-ylamino)-3,4-dihydroquinolin-1(2H)-yl)ethanone], the IC50 is 100 nM.

Regarding `CC(=O)N1c2ccccc2[C@H](Nc2ccc(Cl)cc2)[C@@H](C)[C@@H]1C` (racemic) [Example 13, rac-1-((2S,3R,4R)-4-((4-chlorophenyl)amino)-2,3-dimethyl-3,4-dihydroquinolin-1(2H)-yl)ethanone], the IC50 is 100 nM.

With `COc1ccc(N[C@H]2c3ccccc3N(C(C)=O)[C@@H](C)[C@@H]2C)cc1` (racemic) [Example 15, rac-1-((2S,3R,4R)-4-((4-methoxyphenyl)amino)-2,3-dimethyl-3,4-dihydroquinolin-1(2H)-yl)ethanone], the IC50 is 100 nM.

As for `CC(=O)N1c2ccccc2[C@H](Nc2cccc(C)c2)[C@@H](C)[C@@H]1C` (racemic) [Example 16, rac-1-((2S,3R,4R)-2,3-dimethyl-4-(m-tolylamino)-3,4-dihydroquinolin-1(2H)-yl)ethanone], the IC50 is 100 nM.

On to `CC(=O)N1c2ccccc2[C@H](Nc2ccc(C)cc2)[C@@H](C)[C@@H]1C` (racemic) [Example 20, rac-1-((2S,3R,4R)-2,3-dimethyl-4-(p-tolylamino)-3,4-dihydroquinolin-1(2H)-yl)ethanone], for which the IC50 was 100 nM.

As to `CC(=O)N1c2ccccc2[C@H](Nc2cncc(Cl)c2)[C@@H](C)[C@@H]1C` (racemic) [Example 22, rac-1-((2S,3R,4R)-4-((5-chloropyridin-3-yl)amino)-2,3-dimethyl-3,4-dihydroquinolin-1(2H)-yl)ethanone], the IC50 was 100 nM.

As to `CC(=O)N1c2ccccc2[C@H](Nc2ccnc(C)c2)[C@@H](C)[C@@H]1C` (racemic) [Example 23, rac-1-((2S,3R,4R)-2,3-dimethyl-4-((2-methylpyridin-4-yl)amino)-3,4-dihydroquinolin-1(2H)-yl)ethanone], the IC50 is 1000 to 100000 nM.

In the case of `CC(=O)N1c2ccccc2[C@H](Nc2ccc(C#N)cc2)[C@@H](C)[C@@H]1C1CC1` (racemic) [Example 30, rac-4-(((2S,3R,4R)-1-Acetyl-2-cyclopropyl-3-methyl-1,2,3,4-tetrahydroquinolin-4-yl)amino)benzonitrile], the IC50 is 100 nM.

In the case of `CC(=O)N1c2ccccc2[C@H](Nc2ccc(F)cc2)[C@@H](C)[C@@H]1C1CC1` (racemic) [Example 32, rac-1-((2S,3R,4R)-2-Cyclopropyl-4-((4-fluorophenyl)amino)-3-methyl-3,4-dihydroquinolin-1(2H)-yl)ethanone], the IC50 was 100 nM.

Turning to `CC(=O)N1c2ccccc2[C@H](Nc2cncc(C)n2)[C@@H](C)[C@@H]1C1CC1` (racemic) [Example 48, rac-1-((2S,3R,4R)-2-cyclopropyl-3-methyl-4-((6-methylpyrazin-2-yl)amino)-3,4-dihydroquinolin-1(2H)-yl)ethanone], the IC50 was 1000 to 100000 nM.

For the molecule `CC(=O)N1c2ccccc2[C@H](Nc2ncccc2O)[C@@H](C)[C@@H]1C1CC1` (racemic) [Example 49, rac-1-((2S,3R,4R)-2-cyclopropyyl-4-((3-hydroxypyridin-2-yl)amino)-3-methyl-3,4-dihydroquinolin-1(2H)-yl)ethanone], the IC50 was 1000 to 100000 nM.

In the case of `CC(=O)N1c2ccccc2[C@H](Nc2cccc(C#N)n2)[C@@H](C)[C@@H]1C1CC1` (racemic) [Example 50, rac-6-(((2S,3R,4R)-1-acetyl-2-cyclopropyl-3-methyl-1,2,3,4-tetrahydroquinolin-4-yl)amino)picolinonitrile], the IC50 is 1000 to 100000 nM.

As for `CC(=O)N1c2ccccc2[C@H](Nc2ccccc2)[C@@H](C)[C@@H]1CC(F)(F)F` (racemic) [Example 53, rac-1-((2S,3R,4R)-3-methyl-4-(phenylamino)-2-(2,2,2-trifluoroethyl)-3,4-dihydroquinolin-1(2H)-yl)ethanone], the IC50 is 1000 to 100000 nM.

For the molecule `COC[C@H]1[C@H](C)[C@@H](Nc2ccccc2)c2ccccc2N1C(C)=O` (racemic) [Example 54, rac-1-((2R,3R,4R)-2-(methoxymethyl)-3-methyl-4-(phenylamino)-3,4-dihydroquinolin-1(2H)-yl)ethanone], the IC50 is 1000 to 100000 nM.

On to `CC[C@H]1[C@H](C)[C@@H](Nc2ccc(C#N)cc2)c2cc(F)ccc2N1C(C)=O` (racemic) [Example 62, rac-4-(((2S,3R,4R)-1-acetyl-2-ethyl-6-fluoro-3-methyl-1,2,3,4-tetrahydroquinolin-4-yl)amino)benzonitrile], for which the IC50 is 100 nM.

As to `CC(=O)N1c2cc(O)ccc2[C@H](Nc2cccc(C)n2)[C@@H](C)[C@@H]1C1CC1` (racemic) [Example 65, rac-1-((2S,3R,4R)-2-cyclopropyl-7-hydroxy-3-methyl-4-((6-methylpyridin-2-yl)amino)-3,4-dihydroquinolin-1(2H)-yl)ethanone], the IC50 was 1000 to 100000 nM.

As to `CC(=O)N1c2ccc(S(C)(=O)=O)cc2[C@H](Nc2cccc(C)n2)[C@@H](C)[C@@H]1C1CC1` (racemic) [Example 67, rac-1-((2S,3R,4R)-2-cyclopropyl-3-methyl-4-((6-methylpyridin-2-yl)amino)-6-(methylsulfonyl)-3,4-dihydroquinolin-1(2H)-yl)ethanone], the IC50 was 1000 to 100000 nM.

In the case of `CC(=O)N1c2ccc(S(=O)(=O)C(C)C)cc2[C@H](Nc2cccc(C)n2)[C@@H](C)[C@@H]1C1CC1` (racemic) [Example 68, rac-1-((2S,3R,4R)-2-cyclopropyl-6-(isopropylsulfonyl)-3-methyl-4-((6-methylpyridin-2-yl)amino)-3,4-dihydroquinolin-1(2H)-yl)ethanone], the IC50 was 1000 to 100000 nM.

In the case of `CC(=O)N1c2ccc(N3CCNCC3)cc2[C@H](Nc2ccccc2)[C@@H](C)[C@@H]1C` (racemic) [Example 69, rac-1-((2S,3R,4R)-2,3-dimethyl-4-(phenylamino)-6-(piperazin-1-yl)-3,4-dihydroquinolin-1(2H)-yl)ethanone], the IC50 is 100 nM.

On to `CC(=O)N1c2ccc(N3CCOCC3)cc2[C@H](Nc2ccccc2)[C@@H](C)[C@@H]1C` (racemic) [Example 70, rac-1-((2S,3R,4R)-2,3-dimethyl-6-morpholino-4-(phenylamino)-3,4-dihydroquinolin-1(2H)-yl)ethanone], for which the IC50 is 100 nM.

On to `CC(=O)N1c2ccc(N3CCNC(C)C3)cc2[C@H](Nc2ccccc2)[C@@H](C)[C@@H]1C` (mixture of isomers) [Example 72, 1-((rac-2S,3R,4R)-2,3-dimethyl-6-(3-methylpiperazin-1-yl)-4-(phenylamino)-3,4-dihydroquinolin-1(2H)-yl)ethanone, formate salt], for which the IC50 was 100 nM.

Regarding `CC(=O)N1c2ccc(N3CCC(N)CC3)cc2[C@H](Nc2ccccc2)[C@@H](C)[C@@H]1C` (racemic) [Example 74, rac-1-((2S,3R,4R)-6-(4-aminopiperidin-1-yl)-2,3-dimethyl-4-(phenylamino)-3,4-dihydroquinolin-1(2H)-yl)ethanone, hydrochloride], the IC50 was 100 nM.

Consider `CC(=O)N1c2ccc(N3CCOC(C)C3)cc2[C@H](Nc2ccccc2)[C@@H](C)[C@@H]1C` (mixture of isomers) [Example 77, 1-((rac-2S,3R,4R)-2,3-dimethyl-6-(2-methylmorpholino)-4-(phenylamino)-3,4-dihydroquinolin-1(2H)-yl)ethanone], for which the IC50 was 100 nM.
